Experimental data reported in the NIST ThermoML archive (doi:10.1016/j.jct.2008.04.008).
Numbers after ± are expanded uncertainties.

Experiment: mn = molality of the nth substance listed, in mol/kg
Settings: Liquid; for speed of sound: Pulse-echo method

[Na+].[O-][Cl+3]([O-])([O-])[O-] [sodium perchlorate] + CO
Settings	mass density, 283.15 K [kg/m3]	mass density, 288.15 K [kg/m3]	mass density, 293.15 K [kg/m3]	mass density, 298.15 K [kg/m3]	mass density, 303.15 K [kg/m3]	mass density, 308.15 K [kg/m3]	mass density, 313.15 K [kg/m3]	speed of sound, 298.15 K [m/s]
m1 = 0.06243	805.671 ± 0.29	800.986 ± 0.29	796.296 ± 0.3	791.593 ± 0.3	786.871 ± 0.31	782.134 ± 0.31	777.365 ± 0.32	1106.7 ± 0.91
m1 = 0.0815	807.203 ± 0.29	802.517 ± 0.29	797.826 ± 0.3	793.122 ± 0.3	788.409 ± 0.31	783.67 ± 0.31	778.903 ± 0.32	1107.7 ± 0.91
m1 = 0.1008	808.744 ± 0.29	804.058 ± 0.29	799.365 ± 0.3	794.669 ± 0.3	789.952 ± 0.31	785.213 ± 0.31	780.447 ± 0.32	1108.9 ± 0.91
m1 = 0.1221	810.429 ± 0.29	805.746 ± 0.29	801.058 ± 0.29	796.356 ± 0.3	791.635 ± 0.3	786.904 ± 0.31	782.14 ± 0.31	1110.1 ± 0.91
m1 = 0.1416	811.984 ± 0.28	807.3 ± 0.29	802.609 ± 0.29	797.903 ± 0.3	793.191 ± 0.3	788.455 ± 0.31	783.694 ± 0.31	1111.2 ± 0.91
m1 = 0.1625	813.649 ± 0.28	808.965 ± 0.29	804.274 ± 0.29	799.57 ± 0.3	794.858 ± 0.3	790.121 ± 0.31	785.36 ± 0.31	1112.4 ± 0.91
m1 = 0.2036	816.875 ± 0.28	812.189 ± 0.28	807.5 ± 0.29	802.798 ± 0.29	798.077 ± 0.3	793.334 ± 0.3	788.581 ± 0.31	1115.1 ± 0.92
m1 = 0.2459	820.175 ± 0.28	815.49 ± 0.28	810.8 ± 0.29	806.099 ± 0.29	801.382 ± 0.29	796.642 ± 0.3	791.885 ± 0.3	1117 ± 0.92
m1 = 0.2865	823.32 ± 0.27	818.628 ± 0.28	813.937 ± 0.28	809.237 ± 0.29	804.52 ± 0.29	799.783 ± 0.3	795.021 ± 0.3	1119 ± 0.92
m1 = 0.3276	826.533 ± 0.27	821.841 ± 0.28	817.143 ± 0.28	812.442 ± 0.28	807.725 ± 0.29	802.987 ± 0.29	798.225 ± 0.3	1121.3 ± 0.92
m1 = 0.3701	829.792 ± 0.27	825.099 ± 0.27	820.402 ± 0.28	815.691 ± 0.28	810.974 ± 0.29	806.236 ± 0.29	801.475 ± 0.29	1123.6 ± 0.92
m1 = 0.412	832.991 ± 0.27	828.296 ± 0.27	823.6 ± 0.27	818.891 ± 0.28	814.168 ± 0.28	809.417 ± 0.29	804.668 ± 0.29	1125.5 ± 0.92
